Source: patent US10800815B2, “Kv1.3 potassium channel antagonists” (cgtx-Peptide Development GmbH, priority 2014, dated 2020)

What was measured:
[1] = system: antigen induced arthritis (AIA); assay: Antigen induced arthritis (AIA) rat model, knee joint swelling; type: in vivo; settings: for reduction of knee swelling relative to the vehicle control group: 24 h after arthritis induction; for difference of absolute increase of knee swelling (induced minus un-induced knee): one day after arthritis induction
[2] = system: white blood cells in peripheral blood; assay: Haematology (WBC, neutrophil granulocytes, lymphocytes) in AIA rats; type: in vivo, rat
Description: For the blood withdrawal the animals were narcotized briefly, the tail was disinfected and the tail vein was punctured with a cannula, 50 μl of blood were withdrawn with a heparin coated pipette and mixed with 5 μl of a stabilising agent (CPD) and 1 μl heparin (1.5 U/μl diluted 1:4 in 0.9% NaCl).
White Blood Cells (WBC) were counted with a Coulter Counter in the automatic mode.
Blood samples were taken regularly for monitoring of hematological parameters. Haematological parameters were assessed in all animals weekly before induction, at day of induction and 10 days after induction (days −21, −14, −7, 0 and 10). […] Absolute counts of white blood cells (WBC), neutrophil granulocytes and lymphocytes were analyzed among others, the last two also stated in percentage of total WBC. EDTA whole blood of seven individuals from both vehicle and cgtx-544 peptide therapy group was measured with Sysmex XT-2000i.
For screening the state of health of all individuals, complete haemograms were used again. EDTA whole blood of seven individuals from both MTX high-dose and low-dose therapy groups were measured with Sysmex XT-2000i.V weekly before induction, at day of induction and 4 and 7 days after induction (day −21, −14, −7, 0, 4 and 7; MTX low-dose therapy group additionally on day −3, when i.v. application started).

Kv1.3 [3] = target: T1, Kv1.3 (Homo sapiens, UniProt P22001); assay: Kv1.3 block with prolonged incubation times; type: cell-based; settings: incubation about 20 min, after folding and purification
T1 sequence (P22001 whole entry): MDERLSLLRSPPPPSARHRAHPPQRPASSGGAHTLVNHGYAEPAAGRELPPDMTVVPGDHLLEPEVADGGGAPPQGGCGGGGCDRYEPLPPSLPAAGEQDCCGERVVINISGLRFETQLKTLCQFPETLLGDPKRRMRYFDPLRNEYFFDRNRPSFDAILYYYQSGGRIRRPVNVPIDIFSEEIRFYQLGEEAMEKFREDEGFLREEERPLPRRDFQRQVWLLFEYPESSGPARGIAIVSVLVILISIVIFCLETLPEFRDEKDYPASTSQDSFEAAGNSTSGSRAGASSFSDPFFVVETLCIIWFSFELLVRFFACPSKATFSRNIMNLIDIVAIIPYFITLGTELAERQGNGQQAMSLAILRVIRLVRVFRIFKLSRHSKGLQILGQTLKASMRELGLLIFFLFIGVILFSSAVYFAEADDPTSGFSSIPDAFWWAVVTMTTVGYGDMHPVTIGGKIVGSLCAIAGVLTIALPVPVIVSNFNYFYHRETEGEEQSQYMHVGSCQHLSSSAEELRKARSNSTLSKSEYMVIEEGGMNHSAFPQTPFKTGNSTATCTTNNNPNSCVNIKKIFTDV

Kv1.3 [4] = target: T1, Kv1.3; assay: Decay of cgtx-544(Sing) in human blood serum at 37° C., blocking activity on Kv1.3 (Example 9); type: in vitro ADME
Description: FIG. 33 Decay of cgtx-544(Sing) in human serum at 37° C. A known amount of cgtx-544(Sing) was added to human blood serum from 3 blood donors and incubated at 37° C. for a period of 57 days. The blocking activity of the peptide was measured on Kv1.3 channels over this period. The peptide remains stable for 16 h, and it can still be detected after 45 days. At 57 days the blocking effect is no longer visible. Decay is depicted as the reduction of concentration of cgtx-544 (Sing) as determined by: C(t)=IC50 (t0)/IC50(t).C0. The decay is fitted by a simple decay curve: C (t)=C0.2(−t/t1/2), where C0 is the initial concentration of peptide in solution, t0 is the 0 min incubation at 37° C. point, and t1/2 is the half-life.
Further to the experiments described in Example 3, the stability of the cgtx-544 peptide was tested in blood serum samples under in vitro conditions. Thus, the stability of cgtx-544(Sing) in human blood serum was determined by the addition of a known quantity of cgtx-544(Sing) to human blood serum and a subsequent incubation at 37° C. The blocking activity of ctx-544(Sing) was measured on Kv1.3 channels over a period of 57 days. cgtx-544(Sing) is extremely stable in human blood serum. Its activity remains constant for at least 16 hours, and decays slowly until no more peptide blocking effect is detectable after 57 days.

Kv1.2 = target: T2, Kv1.2 (Homo sapiens, UniProt P16389); assay: Patchliner electrophysiology on Kv1.2 in stably transfected CHO cells (Example 8); type: cell-based
T2 construct: expressed in transfected cells; host or cells: CHO cells, stably transfected
T2 sequence (P16389 whole entry): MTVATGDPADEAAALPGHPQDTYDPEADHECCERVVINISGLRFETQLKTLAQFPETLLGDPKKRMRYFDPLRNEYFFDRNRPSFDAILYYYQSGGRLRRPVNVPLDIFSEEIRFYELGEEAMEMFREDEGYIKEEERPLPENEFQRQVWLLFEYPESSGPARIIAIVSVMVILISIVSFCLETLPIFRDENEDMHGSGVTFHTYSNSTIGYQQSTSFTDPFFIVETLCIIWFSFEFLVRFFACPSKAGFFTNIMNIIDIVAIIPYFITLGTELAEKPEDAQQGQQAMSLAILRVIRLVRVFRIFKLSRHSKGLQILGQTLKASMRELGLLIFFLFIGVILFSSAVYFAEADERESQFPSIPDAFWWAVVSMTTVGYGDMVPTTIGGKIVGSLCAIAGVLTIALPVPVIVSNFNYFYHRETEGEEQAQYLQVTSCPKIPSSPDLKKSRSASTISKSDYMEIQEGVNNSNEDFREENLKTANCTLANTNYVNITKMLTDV
Description: (§1) Ion channels were expressed via Baculovirus (Kv1.1-, Kv1.3- and Kv1.5-constructs) infected Sf21 cells or stably transfected CHO cells (Kv1.2) as described in Examples 1, 2, and 4. Electrophysiological analysis was performed on the automated patch clamp device “Patchliner” (Nanion Technologies, Munich, Germany). The Patchliner is based on a planary patch clamp method borosilicate glass chip (NPC-16) instead of a glass pipettes. The Patchliner is able to record four cells at the same time. All channel recordings were made in the whole cell mode. Data recordings were performed with the PatchMaster software (HEKA Electronics, Lambrecht/Pfalz, Germany). Visualization of experimental results was realized with IGOR software (Wavemetrics, USA). Average data are presented as mean±standard error of the mean (SEM).
(§2) Test compounds were used as concentrated stock solutions (mostly 1.5 μg/μl). Stock solutions were diluted in buffer to the required final concentrations.

Kv1.3 [5] = target: T1, Kv1.3; assay: Patchliner electrophysiology of cgtx-544(Sing) on Kv1.3 in Baculovirus infected Sf21 cells (Example 8); type: cell-based
Description: as §1, §2
After chemical synthesis (see Example 7) the peptide was folded by oxidation with atmospheric oxygen and the correctly folded (biologically active) peptide fraction was purified by preparative HPLC. This purified cgtx-544 peptide was designated cgtx-544(Sing) for singular peak.

Kv1.1 = target: T3, Kv1.1 (Homo sapiens, UniProt Q09470); assay: Patchliner electrophysiology on Kv1.1 in Baculovirus infected Sf21 cells (Example 8); type: cell-based
T3 construct: expressed in transfected cells; host or cells: Sf21 insect cells, baculovirus infection
T3 sequence (Q09470 whole entry): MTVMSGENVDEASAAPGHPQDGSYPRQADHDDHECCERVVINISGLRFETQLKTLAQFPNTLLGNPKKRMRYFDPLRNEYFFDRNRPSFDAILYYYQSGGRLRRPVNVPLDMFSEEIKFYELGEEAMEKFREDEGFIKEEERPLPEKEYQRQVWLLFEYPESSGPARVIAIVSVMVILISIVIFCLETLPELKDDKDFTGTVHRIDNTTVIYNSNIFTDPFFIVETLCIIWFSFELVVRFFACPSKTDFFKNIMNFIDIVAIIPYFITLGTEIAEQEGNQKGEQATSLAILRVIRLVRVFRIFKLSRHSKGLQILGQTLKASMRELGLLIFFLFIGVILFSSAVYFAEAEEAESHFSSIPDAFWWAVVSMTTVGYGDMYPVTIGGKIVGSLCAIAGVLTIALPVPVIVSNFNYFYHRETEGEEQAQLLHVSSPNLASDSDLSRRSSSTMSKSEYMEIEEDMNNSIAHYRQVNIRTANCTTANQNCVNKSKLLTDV
Description: as §1, §2

in vivo = type: in vivo; settings: rat
Description: FIG. 34 Decrease of cgtx-544(Sing) in the serum of treated rats after i.v. injection. The concentration of unbound circulating cgtx-544(Sing) was calculated on the basis of a standard curve. Standard error of the mean is depicted in the error bars (n=6).
Rats received i.v. injections of cgtx-544(Sing) (750 μg/kg BW). Blood was withdrawn at time points 0, 1, 10 and 60 minutes. Subsequently, serum was prepared from blood samples. The cgtx-544 content in these samples was analyzed electrophysiologically by measuring the blocking effect on Kv1.3 channels expressed in CHO cells. […] In order to study the amount of unbound cgtx-544(Sing) in the rat, the amount of cgtx-544(Sing) present in the circulating blood at the time points referred above was calculated through a calibration curve. This calibration curve was obtained by adding known quantities of cgtx-544(Sing) to blood serum and subsequent electrophysiological measurements on Kv1.3 channels. The block of Kv1.3 currents by these spiked samples was similar to that obtained with cgtx-544(Sing) in the absence of serum (data not shown).

[6] = Solubility and stability in 0.9% NaCl solution; type: physicochemical
Description: This peptide solution is being folded by oxidation (formation of disulfide bonds). The folding method is based on bond formation in phosphate buffer at pH 8.3 in the presence of atmospheric oxygen. […] Thus, after the folding reaction the active peptide (retention time 12.77 min) was purified from the cgtx-544 mixture of folded and partially folded peptides by preparative HPLC. After this purification step the active peptide—referred to as cgtx-544(Sing)—usually has an estimated purity of more than 95%.

Kv1.5 = target: T4, Kv1.5 (Homo sapiens, UniProt P22460); assay: Patchliner electrophysiology on Kv1.5 in Baculovirus infected Sf21 cells (Example 8); type: cell-based; settings: 10 μM solution
T4 construct: expressed in transfected cells; host or cells: Sf21 insect cells, baculovirus infection
T4 sequence (P22460 whole entry): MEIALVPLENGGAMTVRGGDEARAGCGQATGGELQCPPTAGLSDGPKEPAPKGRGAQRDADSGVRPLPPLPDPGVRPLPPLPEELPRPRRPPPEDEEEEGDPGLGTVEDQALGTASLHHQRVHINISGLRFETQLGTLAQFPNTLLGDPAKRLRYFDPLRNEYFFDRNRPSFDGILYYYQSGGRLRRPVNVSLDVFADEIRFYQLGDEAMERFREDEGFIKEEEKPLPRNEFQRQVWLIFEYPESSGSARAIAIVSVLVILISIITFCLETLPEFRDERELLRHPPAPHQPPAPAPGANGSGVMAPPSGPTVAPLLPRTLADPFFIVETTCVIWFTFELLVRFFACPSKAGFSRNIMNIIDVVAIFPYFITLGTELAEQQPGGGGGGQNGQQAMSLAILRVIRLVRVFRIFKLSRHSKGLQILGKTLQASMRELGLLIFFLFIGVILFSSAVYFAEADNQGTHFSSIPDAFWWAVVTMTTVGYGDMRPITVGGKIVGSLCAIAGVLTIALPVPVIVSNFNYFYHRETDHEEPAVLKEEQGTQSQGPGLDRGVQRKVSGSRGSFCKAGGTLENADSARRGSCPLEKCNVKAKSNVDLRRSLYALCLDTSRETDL

[7] = high-dose 1 mg/kg 1× weekly s.c.
[8] = low-dose 100 μg/kg 1× daily i.v.
[9] = high-dose 1 mg/kg 1× weekly s.c., day 7
[10] = high-dose 1 mg/kg 1× weekly s.c., day −7
[11] = high-dose 1 mg/kg 1× weekly s.c., seven days after induction
[12] = low-dose 100 μg/kg 1× daily i.v., day 7

## CN(Cc1cnc2nc(N)nc(N)c2n1)c1ccc(C(=O)N[C@@H](CCC(=O)O)C(=O)O)cc1 [MTX, Methotrexate]
[1]; [7]
  relative difference of knee swelling (normalized): 0.39±0.16
  reduction of knee swelling relative to the vehicle control group: 15%
  difference of absolute increase of knee swelling (induced minus un-induced knee): 3.17±1.26 mm
[1]; [8]
  relative difference of knee swelling (normalized): 0.43±0.11
  reduction of knee swelling relative to the vehicle control group: 7%
  difference of absolute increase of knee swelling (induced minus un-induced knee): 3.45±0.87 mm
[2]; [9]
  WBC count: 14.68±2.15 ×10^3/μl
  absolute lymphocyte count: 11.38±1.15 ×10^3/μl
  lymphocyte percentage: 78.16±7.20 % of WBC
[2]; [10]
  WBC count: 20.79±5.96 ×10^3/μl
  absolute lymphocyte count: 11.68±2.8 ×10^3/μl
  absolute neutrophil granulocyte count: 7.54±3.19 ×10^3/μl
  lymphocyte percentage: 57.01±6.45 % of WBC
  relative neutrophils: 35.46±7.08 % of WBC
[2]; [11]
  absolute neutrophil granulocyte count: 1.94±1.1 ×10^3/μl
  relative neutrophils: 12.63±6.1 % of WBC
[2]; [12]
  WBC count: 6.63±1.37 ×10^3/μl
  absolute lymphocyte count: 6.14±1.11 ×10^3/μl
  absolute neutrophil granulocyte count: 0.33±0.36 ×10^3/μl
  decrease of WBC counts compared to the beginning of the experiment: ~50%
  lymphocyte percentage: 93.13±4.66 % of WBC
  relative neutrophils: 4.41±4.63 % of WBC
[2]; low-dose treated individuals, seven days after arthritis induction
  effect in the haemogram compared to the vehicle control group: reduction of WBC count, neutrophil granulocyte count and lymphocyte count

## CC[C@H](C)[C@H](NC(=O)[C@@H](N)[C@@H](C)O)C(=O)N[C@H](C(=O)N[C@@H](CC(N)=O)C(=O)N[C@H](C(=O)N[C@@H](CCCCN)C(=O)N[C@H]1CSSC[C@@H]2NC(=O)[C@H](CCCCN)NC(=O)CNC(=O)[C@H](Cc3ccc(O)cc3)NC(=O)[C@@H]3CCCN3C(=O)[C@@H]3CSSC[C@@H](C(=O)O)NC(=O)[C@H](CCCNC(=N)N)NC(=O)[C@H](CC(N)=O)NC(=O)[C@@H]4CSSC[C@H](NC(=O)[C@@H]5CCCN5C(=O)[C@@H]5CCCN5C(=O)[C@H](CC(C)C)NC(=O)[C@H](CSSC[C@H](NC(=O)[C@H](CCCCN)NC(=O)[C@H](CCCNC(=N)N)NC(=O)[C@H](CC(N)=O)NC(=O)[C@H](CCSC)NC2=O)C(=O)N[C@@H](CCCCN)C(=O)N4)NC(=O)[C@H](CCC(N)=O)NC(=O)[C@H](CCCCN)NC(=O)[C@@H]2CCCN2C(=O)[C@H](CO)NC(=O)[C@H]([C@@H](C)O)NC1=O)C(=O)N[C@@H](CCCCN)C(=O)N[C@@H](C)C(=O)N[C@@H](CCC(N)=O)C(=O)N[C@@H]([C@@H](C)O)C(=O)NCC(=O)N3)C(C)C)[C@@H](C)CC [cgtx-544(Sing)]
Kv1.3 [3]
  IC50: ~0.9 nM
Kv1.3 [4]; human blood serum, 37° C.
  time after which the peptide can still be detected: 45 days
  time at which blocking effect is no longer visible: 57 days
Kv1.3 [4]; human serum at 37° C.
  period for which 50% activity was retained: 5 days
Kv1.2
  IC50: 2500 nM
Kv1.2; 100 nM solution, stably transfected CHO cells
  effect on Kv1.2 currents: did not alter
Kv1.2; concentrations >1 μM
  effect on Kv1.2 currents: only slightly reduced currents
Kv1.3 [5]
  IC50: 6.9 nM
Kv1.1
  IC50: ~6000 nM
In vivo; in vivo, iv, 750 ug/kg, 750 μg/kg BW
  half-life: ~26 min
In vivo; 750 μg/kg BW i.v., 60 minutes
  blocking activity of serum sample relative to the 1 minute sample: 10%
In vivo; i.v., 750 μg/kg BW
  approximate concentration in the circulating blood: ~62 nM
[6]; 0.9% NaCl solution
  solubility: highly soluble
[6]; 0.9% NaCl solution at RT and 4° C.
  stability in solution: up to several weeks
Kv1.5
  reduction of Kv1.5 currents: did not induce a significant reduction
